# Source: patent publication US4742061A, “Benzoc[c]-1,5-naphthyridines and related compounds as memory enhancing agents” (priority 1986, dated 1988)
# System: mice
# Assay: Dark Avoidance Assay (block of scopolamine-induced memory impairment in mice, 24 hours)
# Assay type: in vivo
# Protocol: In this assay mice are tested for their ability to remember an unpleasant stimulus for a period of 24 hours. A mouse is placed in a chamber than contains a dark compartment; a strong incandescent light drives it to the dark compartment, where an electric shock is administered through metal plates on the floor. The animal is removed from the testing apparatus and tested again, 24 hours later, for the ability to remember the electric shock.
# If scopolamine, an anticholinergic agent that is known to cause memory impairment, is administered before an animal's initial exposure to the test chamber, the animal re-enters the dark compartment shortly after being placed in the test chamber 24 hours later. This effect of scopolamine is blocked by an active test compound, resulting in greater interval before re-entry into the dark compartment.
# The results for an active compound are expressed as the percent of a group of animals in which the effect of scopolamine is blocked, as manifested by an increased interval between being placed in the test chamber and re-entering the dark compartment.
smiles,measurement,setting,value
"Nc1c2c(nc3ccccc13)CCCC2 [Tacrine, 9-amino-1,2,3,4-tetrahydro-acridine]",% of Animals Greater than Scopolamine,dose 0.63 mg/kg of body weight,13%
CC[C@@H]1C(=O)OC[C@@H]1Cc1cncn1C [Pilocarpine],% of Animals Greater than Scopolamine,dose 5.0 mg/kg of body weight,13%
"c1ccc2c3c(ncc2c1)CCCN3 [1,2,3,4-Tetrahydrobenzo[c]-1,5-naphthyridine]",% of Animals Greater than Scopolamine,dose 1.25 mg/kg of body weight,27%
same,% of Animals Greater than Scopolamine,dose 2.5 mg/kg of body weight,25%
